Experimental data published in patent publication US9309243B2, “Imidazopyridine derivatives as modulators of TNF activity” (UCB Biopharma SPRL, priority 2012, dated 2016).

- melting point: 143 to 144 °C
Structure (SMILES): Cc1nc2cc(F)c(-c3cnc(C4(O)COC4)nc3)cn2c1Cc1ccccc1OC(F)F [Example 322, 3-[5-(3-{[2-(Difluoromethoxy)phenyl]methyl}-7-fluoro-2-methylimidazo[1,2-a]pyridin-6-yl)pyrimidin-2-yl]oxetan-3-ol]
